Assay results: publication PMC4104174 (Journal of the American Chemical Society, 2014)
Like-named read-outs stand apart in the source and are kept apart here.

How the values were obtained:
[1] = target: hCAII; conditions: cited from earlier work
[2] = target: human carbonic anhydrase II (hCAII) (Homo sapiens, UniProt P00918); assay: hCAII activity assay; assay type: biochemical
[3] = free ligand acidity; cited from earlier work

Ki [2] [µM] | Compound | pKa [3] | other results
650 ± 60 | Cc1cc(=S)c(O)co1 [ATM, 5-hydroxy-2-methyl-4H-pyran-4-thione] | 7.64 | fold more potent (Ki) than TM and TPMA ([2]; ATM vs TM and TPMA, hCAII): roughly 2 fold
1400 ± 200 | Cc1occc(=S)c1O [TM, 3-hydroxy-2-methyl-4H-pyran-4-thione] | 8.06 | 

The next lines start with the compound.

Compound | Ki [2] [µM] | pKa [3] | other results
2-mercaptopyridine-N-oxide [1,2-HOPTO] |  |  | Ki ([1]; previously reported): 850 µM
Oc1ccccc1S [2-MP, 2-mercaptophenol] |  |  | Ki [1]: 3 ± 0.7 µM
Oc1coccc1=S [TPMA, 3-hydroxy-4H-pyran-4-thione] | 1100 ± 200 |  | 
